Laboratory results: US20240092784A1, “CONDENSED HETEROCYCLIC COMPOUND” (NISSAN CHEMICAL CORPORATION, priority 2020, published 2024)
Counter-ions that a name gives are not always drawn.

Molecular target: human SPR (Homo sapiens (Human), UniProt P35270)
Experiment: Evaluation Example 2: Measurement of human SPR inhibitory activity (seven concentrations, sepiapterin absorbance at 420 nm)
Type: biochemical
Settings: Evaluation Example 2, seven concentrations 0.14 nM to 100 nM, 240 minutes at room temperature, read-out: IC50
Method in brief: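 His-tagged full-length human SPR (1-261) was expressed in E. coli and the tag removed. Enzyme at 150 ng/mL in 100 mM Tris-HCl pH 7.5/0.01% BSA was mixed with compound (0.14–100 nM, seven points), 120 μM sepiapterin and 160 μM NADPH, both as added-solution concentrations. After 240 min at room temperature, remaining sepiapterin was read at 420 nm to give percent inhibition.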

human SPR, sequence (P35270 whole entry): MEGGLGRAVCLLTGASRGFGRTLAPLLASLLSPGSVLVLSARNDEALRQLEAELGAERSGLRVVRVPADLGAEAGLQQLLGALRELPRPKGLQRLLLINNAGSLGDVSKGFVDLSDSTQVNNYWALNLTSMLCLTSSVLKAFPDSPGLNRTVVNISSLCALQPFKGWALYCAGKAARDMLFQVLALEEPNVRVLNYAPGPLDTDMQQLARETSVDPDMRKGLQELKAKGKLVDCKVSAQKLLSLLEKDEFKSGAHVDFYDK

Row | SMILES | IC50
1 | CC(C)(C)Cn1c(=O)c(C(=O)NC2CC2)c(O)n2nc(-c3[nH]ncc3C(=O)NCC3CCOCC3)cc12 [Synthesis Example 315, N-Cyclopropyl-7-hydroxy-4-neopentyl-5-oxo-2-(4-(((tetrahydro-2H-pyran-4-yl)methyl)carbamoyl)-1H-pyrazol-5-yl)-4,5-dihydropyrazolo[1,5-a]pyrimidine-6-carboxamide hydrochloride] | 1.11 nM
2 | CC(C)(C)Cn1c(=O)c(C(=O)NC2CC2)c(O)n2nc(-c3[nH]ncc3C(=O)N3CCC(F)(F)C3)cc12 [Synthesis Example 316, N-Cyclopropyl-2-(4-(3,3-difluoropyrrolidine-1-carbonyl)-1H-pyrazol-5-yl)-7-hydroxy-4-neopentyl-5-oxo-4,5-dihydropyrazolo[1,5-a]pyrimidine-6-carboxamide hydrochloride] | 0.9 nM
3 | CC(C)(C)Cn1c(=O)c(C(=O)NC2CC2)c(O)n2nc(-c3c[nH]nc3N)cc12 [Synthesis Example 317, 2-(3-Amino-1H-pyrazol-4-yl)-N-cyclopropyl-7-hydroxy-4-neopentyl-5-oxo-4,5-dihydropyrazolo[1,5-a]pyrimidine-6-carboxamide] | 1.34 nM
4 | CC(C)Cn1c(=O)c(C(=O)NC2CC2)c(O)n2nc(O)cc12 [Synthesis Example 318, N-Cyclopropyl-2,7-dihydroxy-4-isobutyl-5-oxo-4,5-dihydropyrazolo[1,5-a]pyrimidine-6-carboxamide] | 1.43 nM
5 | Cc1cc2n(CC(C)C)c(=O)c(C(=O)NC3CC3)c(O)n2n1 [Synthesis Example 319, N-Cyclopropyl-7-hydroxy-4-isobutyl-2-methyl-5-oxo-4,5-dihydropyrazolo[1,5-a]pyrimidine-6-carboxamide] | 3.16 nM
6 | Cc1cc2n(CC(C)(C)C)c(=O)c(C(=O)NC3CC3)c(O)n2n1 [Synthesis Example 320, N-Cyclopropyl-7-hydroxy-2-methyl-4-neopentyl-5-oxo-4,5-dihydropyrazolo[1,5-a]pyrimidine-6-carboxamide] | 1.69 nM
7 | COC(C)(C)Cn1c(=O)c(C(=O)NC2CC2)c(O)n2nc(Nc3cnccn3)cc12 [Synthesis Example 321, N-Cyclopropyl-7-hydroxy-4-(2-methoxy-2-methylpropyl)-5-oxo-2-(pyrazin-2-ylamino)-4,5-dihydropyrazolo[1,5-a]pyrimidine-6-carboxamide] | 0.72 nM
8 | CC(C)(C)Cn1c(=O)c(C(=O)NC2CC2)c(O)n2nc(Nc3cnc(F)cn3)cc12 [Synthesis Example 322, N-Cyclopropyl-2-((5-fluoropyrazin-2-yl)amino)-7-hydroxy-4-neopentyl-5-oxo-4,5-dihydropyrazolo[1,5-a]pyrimidine-6-carboxamide] | 0.98 nM
9 | CC(C)(C)Cn1c(=O)c(C(=O)NC2CC2)c(O)n2nc(Nc3cnc(C#N)cn3)cc12 [Synthesis Example 323, 2-((5-Cyanopyrazin-2-yl)amino)-N-cyclopropyl-7-hydroxy-4-neopentyl-5-oxo-4,5-dihydropyrazolo[1,5-a]pyrimidine-6-carboxamide] | 1.2 nM
10 | CC(C)(C)Cn1c(=O)c(C(=O)NC2CC2)c(O)n2nc(Nc3cncc(C#N)n3)cc12 [Synthesis Example 324, 2-((6-Cyanopyrazin-2-yl)amino)-N-cyclopropyl-7-hydroxy-4-neopentyl-5-oxo-4,5-dihydropyrazolo[1,5-a]pyrimidine-6-carboxamide] | 1.61 nM
11 | CC(C)(C)Cn1c(=O)c(C(=O)NC2CC2)c(O)n2nc(Nc3ccnc(C#N)n3)cc12 [Synthesis Example 325, 2-((2-Cyanopyrimidin-4-yl)amino)-N-cyclopropyl-7-hydroxy-4-neopentyl-5-oxo-4,5-dihydropyrazolo[1,5-a]pyrimidine-6-carboxamide] | 1.45 nM
12 | C[C@H](Nc1cc2n(CC(C)(C)C)c(=O)c(C(=O)NC3CC3)c(O)n2n1)c1ccccn1 [Synthesis Example 326, (S)-N-Cyclopropyl-7-hydroxy-4-neopentyl-5-oxo-2-((1-(pyridin-2-yl)ethyl)amino)-4,5-dihydropyrazolo[1,5-a]pyrimidine-6-carboxamide] | 1.96 nM
13 | C[C@@H](Nc1cc2n(CC(C)(C)C)c(=O)c(C(=O)NC3CC3)c(O)n2n1)c1ccccn1 [Synthesis Example 327, (R)-N-Cyclopropyl-7-hydroxy-4-neopentyl-5-oxo-2-((1-(pyridin-2-yl)ethyl)amino)-4,5-dihydropyrazolo[1,5-a]pyrimidine-6-carboxamide] | 2.39 nM
14 | Cc1nccnc1Nc1cc2n(CC(C)(C)C)c(=O)c(C(=O)NC3CC3)c(O)n2n1 [Synthesis Example 328, N-Cyclopropyl-7-hydroxy-2-((3-methylpyrazin-2-yl)amino)-4-neopentyl-5-oxo-4,5-dihydropyrazolo[1,5-a]pyrimidine-6-carboxamide] | 1.56 nM
15 | CC(C)(C)Cn1c(=O)c(C(=O)NC2CC2)c(O)n2nc(Nc3cc(C#N)ncn3)cc12 [Synthesis Example 329, 2-((6-Cyanopyrimidin-4-yl)amino)-N-cyclopropyl-7-hydroxy-4-neopentyl-5-oxo-4,5-dihydropyrazolo[1,5-a]pyrimidine-6-carboxamide] | 1.69 nM
16 | Cc1cncc(Nc2cc3n(CC(C)(C)C)c(=O)c(C(=O)NC4CC4)c(O)n3n2)n1 [Synthesis Example 330, N-Cyclopropyl-7-hydroxy-2-((6-methylpyrazin-2-yl)amino)-4-neopentyl-5-oxo-4,5-dihydropyrazolo[1,5-a]pyrimidine-6-carboxamide] | 1.83 nM
17 | CC(C)(C)Cn1c(=O)c(C(=O)NC2CC2)c(O)n2nc(Nc3cncc(C(F)(F)F)n3)cc12 [Synthesis Example 331, N-Cyclopropyl-7-hydroxy-4-neopentyl-5-oxo-2-((6-(trifluoromethyl)pyrazin-2-yl)amino)-4,5-dihydropyrazolo[1,5-a]pyrimidine-6-carboxamide] | 1.71 nM
18 | COc1nccc(Nc2cc3n(CC(C)(C)C)c(=O)c(C(=O)NC4CC4)c(O)n3n2)n1 [Synthesis Example 332, N-Cyclopropyl-7-hydroxy-2-((2-methoxypyrimidin-4-yl)amino)-4-neopentyl-5-oxo-4,5-dihydropyrazolo[1,5-a]pyrimidine-6-carboxamide] | 2.06 nM
19 | Cc1cnc(Nc2cc3n(CC(C)(C)C)c(=O)c(C(=O)NC4CC4)c(O)n3n2)cn1 [Synthesis Example 333, N-Cyclopropyl-7-hydroxy-2-((5-methylpyrazin-2-yl)amino)-4-neopentyl-5-oxo-4,5-dihydropyrazolo[1,5-a]pyrimidine-6-carboxamide] | 1.86 nM
20 | Cc1nccc(Nc2cc3n(CC(C)(C)C)c(=O)c(C(=O)NC4CC4)c(O)n3n2)n1 [Synthesis Example 334, N-Cyclopropyl-7-hydroxy-2-((2-methylpyrimidin-4-yl)amino)-4-neopentyl-5-oxo-4,5-dihydropyrazolo[1,5-a]pyrimidine-6-carboxamide] | 1 nM
21 | CC(C)(C)Cn1c(=O)c(C(=O)NC2CC2)c(O)n2nc(Nc3cnc(C(=O)N4CCOCC4)cn3)cc12 [Synthesis Example 335, N-Cyclopropyl-7-hydroxy-2-((5-(morpholine-4-carbonyl)pyrazin-2-yl)amino)-4-neopentyl-5-oxo-4,5-dihydropyrazolo[1,5-a]pyrimidine-6-carboxamide] | 0.73 nM
22 | CCCc1cnc(Nc2cc3n(CC(C)(C)C)c(=O)c(C(=O)NC4CC4)c(O)n3n2)cn1 [Synthesis Example 336, N-Cyclopropyl-7-hydroxy-4-neopentyl-5-oxo-2-((5-propylpyrazin-2-yl)amino)-4,5-dihydropyrazolo[1,5-a]pyrimidine-6-carboxamide] | 7.13 nM
23 | CC(C)(C)Cn1c(=O)c(C(=O)NC2CC2)c(O)n2nc(Nc3cnc(C(F)F)cn3)cc12 [Synthesis Example 337, N-Cyclopropyl-2-((5-(difluoromethyl)pyrazin-2-yl)amino)-7-hydroxy-4-neopentyl-5-oxo-4,5-dihydropyrazolo[1,5-a]pyrimidine-6-carboxamide] | 1.48 nM
24 | CCOc1cnc(Nc2cc3n(CC(C)(C)C)c(=O)c(C(=O)NC4CC4)c(O)n3n2)cn1 [Synthesis Example 338, N-Cyclopropyl-2-((5-ethoxypyrazin-2-yl)amino)-7-hydroxy-4-neopentyl-5-oxo-4,5-dihydropyrazolo[1,5-a]pyrimidine-6-carboxamide] | 2.73 nM
25 | Cc1cc(Nc2cc3n(CC(C)(C)C)c(=O)c(C(=O)NC4CC4)c(O)n3n2)ncn1 [Synthesis Example 339, N-Cyclopropyl-7-hydroxy-2-((6-methylpyrimidin-4-yl)amino)-4-neopentyl-5-oxo-4,5-dihydropyrazolo[1,5-a]pyrimidine-6-carboxamide] | 4.57 nM
26 | Cc1cncnc1Nc1cc2n(CC(C)(C)C)c(=O)c(C(=O)NC3CC3)c(O)n2n1 [Synthesis Example 340, N-Cyclopropyl-7-hydroxy-2-((5-methylpyrimidin-4-yl)amino)-4-neopentyl-5-oxo-4,5-dihydropyrazolo[1,5-a]pyrimidine-6-carboxamide] | 1.92 nM
27 | CC(C)(C)Cn1c(=O)c(C(=O)NC2CC2)c(O)n2nc(N3CC[C@@H](N)C3)cc12 [Synthesis Example 341, (R)-2-(3-Aminopyrrolidin-1-yl)-N-cyclopropyl-7-hydroxy-4-neopentyl-5-oxo-4,5-dihydropyrazolo[1,5-a]pyrimidine-6-carboxamide] | 2.6 nM
28 | CC(C)(C)Cn1c(=O)c(C(=O)NC2CC2)c(O)n2nc(N3CC[C@H](N)C3)cc12 [Synthesis Example 342, (S)-2-(3-Aminopyrrolidin-1-yl)-N-cyclopropyl-7-hydroxy-4-neopentyl-5-oxo-4,5-dihydropyrazolo[1,5-a]pyrimidine-6-carboxamide] | 2.31 nM
29 | CC(C)(C)Cn1c(=O)c(C(=O)NC2CC2)c(O)n2nc(NC3CCCCC3)cc12 [Synthesis Example 343, 2-(Cyclohexylamino)-N-cyclopropyl-7-hydroxy-4-neopentyl-5-oxo-4,5-dihydropyrazolo[1,5-a]pyrimidine-6-carboxamide] | 4.71 nM
